Experimental findings from patent publication US20260183274A1, “PDK1 REGULATORY COMPOUND AND COMPOSITION CONTAINING THE SAME” (PROVIBIO CO., LTD., priority 2024, published 2026) are described below.

Test [1] deals with Human Colorectal Carcinoma cell line, HCT-116. As to the kind of experiment: Relative cell viability CCK-8, HCT-116. The class given is cell-based. Particulars: Homo sapiens, HCT-116, 48 hours. Here is the method:
(§1) Human-derived breast cancer cell line MCF-7, human-derived lung cancer cell line A549, human-derived colorectal cancer cell line HCT-116, human pancreatic cancer cell line AsPC-1, glioblastoma cell line A172, and melanoma cell line Malme-3M were obtained from the Korean Cell Bank. gastric cancer cell line SNU-719, and bladder cancer cell line T24 were cultured in RPMI-1640 medium containing 10% FBS.
(§2) Following stabilization, the cells were harvested using Trypsin-EDTA treatment, centrifuged at 1,200 rpm for 3 minutes, the supernatant was removed, and the cells were resuspended in the same medium. They were then seeded into a 96-well plate (Costar 96-well cell culture plate, Corning) at 100 μL per well, and the conditions were adjusted as indicated in Table 5.
(§3) The cells were cultured in a 5% CO2 incubator at 37° C. for 24 hours, and after stabilization of the cells, each plate was washed with 200 μL of PBS per well and treated with 50 μL of culture medium per well.
(§4) After that, 10 μL of CCK-8 was added to each well, and the plate was incubated again at 37° C. in a 5% CO2 incubator for 2 hours.
(§5) In other words, when the survival rate of untreated cells (DMSO) is set at 100%, the relative cell survival rate in each group treated with the drug at different concentrations is indicated.

Test [2] deals with Human Pancreas Adenocarcinoma cell line, AsPC-1. The test can be described thus: Relative cell viability CCK-8, AsPC-1. The class given is cell-based. The note with it: 48 hours. The protocol:
as §1, §2, §3, §4, §5

The test system of test [3] is T cells isolated from mouse spleens. The test can be described thus: T cell proliferation inhibition (CFSE flow cytometry, anti-CD3/anti-CD28 stimulation). Particulars: Mus musculus, T-cell, 72 h, mouse spleen T cells, 3 days, read-out: Proliferation inhibition rate (%); for inhibition at 0.01 µM: compound 10 nM; for inhibition at 0.1 µM: compound 100 nM; for inhibition at 1 µM: compound 1 μM; for inhibition at 10 µM: compound 10 μM; for inhibition at 30 µM: compound 30 μM; for inhibition at 50 µM: compound 50 μM. Format: cell-based. A digest of the protocol:
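Proliferation inhibition (%) came from flow cytometry of CFSE dilution after 3 days' culture at 37 °C with compound (10 nM, 100 nM, 1, 10, 30, 50 μM; triplicate wells). Cells were magnetically purified T cells from C57BL/6 mouse spleens, 2×10^5 per well, stimulated with 0.5 μg/mL each anti-CD3 and anti-CD28.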

For test [4], the system named is HCT-116 colon cancer cell lines. The test can be described thus: Matrigel Invasion Assay, HCT-116. Format: cell-based, human. The note with it: 24 hours treatment, FIG. 30. The protocol:
To evaluate the metastasis inhibitory efficacy of the compounds of the present invention on HCT-116 colon cancer cell lines, an Invasion Assay using Matrigel was performed to assess the cells' invasion ability.
First, Matrigel was thawed on ice in RPMI-1640 medium without FBS, then diluted with DMEM at a ratio of 1:20.
The diluted Matrigel mixture was applied to the upper chamber at 100 μl per well, and 750 μl of RPMI-1640 without FBS was added to the lower chamber.
The plates were then incubated at 37° C. for 1 hour to allow the Matrigel to solidify.
After coating, the Matrigel mixture in the upper chamber was removed using a pipette, and the chamber was washed with RPMI without FBS.
Human-derived colorectal cancer cell line HCT-116, obtained from the Korean Cell Bank, was cultured in RPMI-1640 medium containing 10% FBS.
Following stabilization, the cells were harvested using Trypsin-EDTA treatment, centrifuged at 1,200 rpm for 3 minutes, the supernatant was removed, and the cells were resuspended in the same medium, the medium in the lower chamber was replaced with 750 μl of RPMI-1640 supplemented with 10% FBS, and the cells were seeded into the upper chamber at a density of 5×10^4 cells/well.
The cells were cultured for 24 hours after attachment, and then the compounds according to the present invention (G078, G085, G086, G088, G089, PBK-2024-010, PBK-2025-010, PBK-2025-013, PBK-2025-016) and the control substance DMSO were diluted and added to the upper chamber after removing the medium.
Additionally, the medium in the lower chamber was replaced with fresh RPMI-1640 containing FBS, and the culture was continued.
After an additional 24 hours, the medium was removed, and 1 ml of methanol was added for 10 minutes to fix the cells.
Subsequently, 1 ml of Hematoxylin was added and reacted for 5 minutes, followed by 1 ml of Eosin, which was reacted for 30 seconds. The sample was then washed with distilled water (DW).
After staining was complete, any remaining cells in the upper chamber were removed. Finally, the infiltrated cells were observed under a microscope, photographed, and the degree of infiltration was analyzed.

Test [5] has as its system Human Bladder cancer cell, T24. The test can be described thus: Relative cell viability CCK-8, T24. Format: cell-based. Particulars: Homo sapiens, 48 h. The protocol:
as §1, §2, §3, §4, §5

Test [6] concerns Human B Lymphocyte cell line, SU-DHL-8. The test can be described thus: Relative cell viability CCK-8, SU-DHL-8. The class given is cell-based. Particulars: Homo sapiens, SU-DHL-8, 48 h, 48 hours, untreated (DMSO) = 100%; for viability at 1 µM: read-out: Relative cell viability (%), SU-DHL-8, 1 μM; for viability at 10 µM: read-out: Relative cell viability (%), SU-DHL-8, 10 μM; for viability at 30 µM: read-out: Relative cell viability (%), SU-DHL-8, 30 μM; for viability at 50 µM: read-out: Relative cell viability (%), SU-DHL-8, 50 μM. In short, it runs like this: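 Cells grown in RPMI-1640 with 10% FBS, treated with compound at several concentrations, then given CCK-8 for 4 h at 37° C. Viability expressed as percent of DMSO-treated cells.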

Test [7] deals with Human Gastric cancer cell, SNU-719. As to the kind of experiment: Relative cell viability CCK-8, SNU-719. Format: cell-based. Particulars: 48 hours. Here is the method: as §1, §2, §3, §4, §5
Test [8] has as its system Human Cervical Carcinoma cell line, HeLa. As to the kind of experiment: Relative cell viability CCK-8, HeLa. The class given is cell-based. Particulars: 48 hours. The protocol: Similarly, human-derived cervical cancer cell line HeLa and renal cancer cell line ACHN, obtained from the Korean Cell Bank, were cultured in DMEM medium containing 10% FBS, 100 U/mL penicillin, and 100 μg/mL streptomycin.
as §2, §3
(§6) The compounds according to the present invention or the control group (DMSO) were added at concentrations of 0, 10, 30, and 50 μM in 50 μL aliquots to the plates, and the plates were cultured at 37° C. in a 5% CO2 incubator for 48 hours.
as §4, §5

Test [9] deals with Human Breast Cancer cell line, MCF-7. As to the kind of experiment: Relative cell viability CCK-8, MCF-7. The note with it: 48 hours. The class given is cell-based. Here is the method: as §1, §2, §3, §6, §4, §5

Structures are written as SMILES.

Consider `O=C(NCCCCCCCCCCCCN1CCN2CCCC2C1)c1cccnc1` (stereo not drawn) [Compound 23, N-(12-(hexahydropyrrolo[1,2-a]pyrazin-2 (1H)-yl)dodecyl) nicotinamide], for which the viability (in general, the share of living cells, or the viability signal relative to a control) at 1 µM in test [1] (1 μM) was found to be 13.1%; in test [2] (ASPC1, 1 μM), 42.4%; in [5] (1 μM), 10%; in test [6], 16.1%; in [7] (1 μM), 36.1%. The viability at 10 µM came out at 14.6% in [1] (10 μM); 44.5% in test [2] (ASPC1, 10 μM); 10.1% in [5] (10 μM); 15.7% in [6]; 35.9% in [7] (10 μM). Moreover, the viability at 30 µM worked out at 14% in [1] (30 μM); 42.7% in [2] (ASPC1, 30 μM); 9.53% in test [5] (30 μM); 9.17% in test [6]; 40.4% in [7] (30 μM). The viability at 50 µM in test [1] (50 μM) came out at 13%; in test [2] (ASPC1, 50 μM) it was 42%; in test [5] (50 μM) it was 9.46%; in test [6], 1.97%; in test [7] (50 μM), 35.6%. In test [3], the inhibition at 0.01 µM was -12.8%. The inhibition at 0.1 µM in test [3] worked out at 100%. In addition, the inhibition at 1 µM in [3] is 100%. Further, the inhibition at 10 µM in test [3] is 100%. In addition, in test [3], the inhibition at 30 µM is 100%. Moreover, in test [3], the inhibition at 50 µM turned out to be 100%. Further, in [4], the “Number of infiltrated cells (invasion)” value is on record as “reduction in the number of infiltrated cells”.
As to `Nc1ncccc1C(=O)NCCCCCCCCCCCCN1CCc2ccccc2C1` [Compound 3, 2-Amino-N-[12-(3,4-dihydro-1H-isoquinolin-2-yl)-dodecyl]-nicotinamide], in test [3], the inhibition at 0.01 µM amounted to 4.99%, the inhibition at 0.1 µM was determined as 0%, the inhibition at 1 µM stood at 0% and the inhibition at 10 µM was 88.3%. Besides, in [3], the inhibition at 30 µM came to 100% and the inhibition at 50 µM worked out at 100%. Besides, in test [8] (1 μM), the viability at 1 µM worked out at 16.4%. In addition, the viability at 10 µM in test [8] (10 μM) was determined as 3.26%. For the same compound, in test [8] (30 μM), the viability at 30 µM was found to be 1.07%. The compound also displayed a viability at 50 µM in test [8] (50 μM) of 0.73%. In test [6], the viability at 1 µM came to 29.1%, the viability at 10 µM turned out to be 25.7%, the viability at 30 µM was 24.7% and the viability at 50 µM was found to be 23.5%. In addition, in test [9] (MCF7, 1 μM), the viability at 1 µM was 35.4%. The viability at 10 µM in [9] (MCF7, 10 μM) was 9.1%. The compound also gave a viability at 30 µM in [9] (MCF7, 30 μM) of 4.02%. Further, in test [9] (MCF7, 50 μM), the viability at 50 µM is 1.95%.
